Source: patent US20100047314A1 (OsteoGeneX Inc., priority 2008, published 2010)

What was measured:
male C57BL/6 mice [1] = assay: Trabecular bone volume by micro-CT analysis on proximal tibia and lumbar L5; type: in vivo, mouse
Method: (§1) Four month old male C57BL/6 mice were treated daily with saline vehicle or the sclerostin inhibitor of calcium folinate at 10-100 mg/kg (via i.p) for 30 days. Study endpoints included a biochemical marker of bone formation; osteocalcin, measured by EIA Elisa, and measurement of trabecular bone volume by mico-CT analysis on the proximal tibia and Lumbar L5.

male C57BL/6 mice [2] = assay: Serum osteocalcin bone formation marker by EIA Elisa in mice treated 30 days; type: in vivo, mouse; details: 100 mg/kg i.p. daily for 30 days, four month old male C57BL/6 mice
Method: as §1

Wnt pathway = assay: Modulation of the Wnt pathway (FIG. 1); details: doses of 2.5 ng (low), 60 ng (medium), 125 ng (high) and 1250 ng (very high)
Source text: (§2) Compounds useful in the methods of the present invention can be identified via a variety of methods known to one of skill in the art. Several exemplary methods for identifying such antagonists are described herein, including cell-based and in vitro techniques (Journal of Bone and Mineral Research 2006, 21(11), 1738-1749). A general method of identifying SOST antagonists involves evaluating the effects of antagonist candidates on bone formation under controlled conditions. Preferably bone formation is determined using micro-CT techniques on live animals. Preferred animals include rodents, more preferred are primates. Femur, tibia and vertebrae bones are particularly useful subjects for such study.

mouse = assay: Mouse bone formation assay of SOST antagonist candidates, examined by micro-CT; type: in vivo; details: versus control solution
Source text: as §2
Briefly, the test animal is treated with a predetermined dose of a SOST antagonist candidate. […]
Once the dosing schedule has been completed, both test and control animals are examined to determine the quantity of bone formation present. […] Where necessary, levels of bone formation can be calculated by determining the volume of bone formation present in each animal. […]
For example, the mouse test animal is treated with a predetermined dose of a SOST antagonist candidate for a complete dosing schedule. […] Once the dosing schedule has been completed, both test and control animals are examined with sacrifice using micro-CT to determine the quantity of bone formation present.

SMILES	increase in bone volume for the tibia over baseline controls (male C57BL/6 mice [1]; 10 mg/kg i.p. daily for 30 days, proximal tibia, micro-CT)	increase in bone volume for lumbar L5 over controls (male C57BL/6 mice [1]; 100 mg/kg i.p. daily for 30 days, lumbar L5, micro-CT)	percent increase in serum osteocalcin bone formation marker over saline controls (male C57BL/6 mice [2])	modulation of the Wnt pathway to promote bone growth (Wnt pathway)	quantity of bone formation (promotion of bone growth) (mouse)
Nc1nc(=O)c2c([nH]1)NCC(CNc1ccc(C(=O)N[C@@H](CCC(=O)[O-])C(=O)[O-])cc1)N2C=O.[Ca+2] (some centres unmarked) [calcium folinate]	greater than 37%	51%	41%	–	–
Nc1nc(=O)c2c([nH]1)NCC(CNc1ccc(C(=O)NC(CCC(=O)O)C(=O)O)cc1)N2C=O (centres unmarked) [folinic acid]	–	–	–	modulating the Wnt pathway to promote bone growth	promoting bone growth
